Test results from patent publication US9173392B2, “Emulsifiable concentrate” (priority 2010, dated 2015).

Legend:
[1] = Active component solubility in solvents at 10° C. and 54° C. (visual, HPLC for undissolved samples); details: for Approximate Percent (%) Solubility Determination of Active Components in Solvents (Malathion At 10° C.) / Approximate Percent (%) Solubility Determination of Active Components in Solvents (Malathion At 54° C.): 20 g Malathion in 10 g solvent; for Approximate Percent (%) Solubility Determination of Active Components in Solvents (Malathion At 10° C.) / Approximate Percent (%) Solubility Determination of Active Components in Solvents (Metolachlor At 10° C.): about two weeks at 10° C.; for Approximate Percent (%) Solubility Determination of Active Components in Solvents (Malathion At 10° C.) / Approximate Percent (%) Solubility Determination of Active Components in Solvents (Malathion At 54° C.) / Approximate Percent (%) Solubility Determination of Active Components in Solvents (Metolachlor At 10° C.) / Approximate Percent (%) Solubility Determination of Active Components in Solvents (Metolachlor At 54° C.): totally soluble = no particles visually detectable; for Approximate Percent (%) Solubility Determination of Active Components in Solvents (Malathion At 54° C.) / Approximate Percent (%) Solubility Determination of Active Components in Solvents (Metolachlor At 54° C.): about two weeks at 54° C.; for Approximate Percent (%) Solubility Determination of Active Components in Solvents (Metolachlor At 10° C.) / Approximate Percent (%) Solubility Determination of Active Components in Solvents (Metolachlor At 54° C.): 20 g Metolachlor in 10 g solvent; for miscible in the Solvent 1 up to: active component in Solvent 1 (Examples 1-3)
[2] = Determination of VOC content (percentage weight loss of solvent aliquot on heating); type: physicochemical; details: 10 mg aliquot, furnace 35° C. raised 5° C. per minute, held isothermally at 115° C.
Protocol: A series of solvents are evaluated to determine a content of volatile organic compounds (VOCs) and suitability for use in this invention. More specifically, the 1,2-cyclohexanedicarboxylic acid diisononyl ester (Hexamoll® Dinch) of this invention is evaluated as Solvent 1. Twelve additional comparative solvents (Comparative Solvents 1-12) are also evaluated.
After addition of the aliquots to the pans, the pans are placed in a furnace at 35° C. The temperature of the furnace is then raised at a rate of 5° C. per minute and held isothermally at 115° C. When mass loss stabilizes at less than 0.5% for 5 minutes, the temperature is then held at 115° C. for an additional 15 minutes. Total run times average about 80 minutes. The results of the VOC content evaluations are set forth in Table 1 below wherein all values represent percentage weight loss of the aliquot and correlate to approximate VOC content.

Compound	Approximate Percent (%) Solubility Determination of Active Components in Solvents (Malathion At 10° C.) [1]	Approximate Percent (%) Solubility Determination of Active Components in Solvents (Malathion At 54° C.) [1]	Approximate Percent (%) Solubility Determination of Active Components in Solvents (Metolachlor At 10° C.) [1]	Approximate Percent (%) Solubility Determination of Active Components in Solvents (Metolachlor At 54° C.) [1]	% Total Weight Loss = VOC Content [2]	miscible in the Solvent 1 up to [1]
CC1COC(=O)O1 (stereo not shown) [Comparative Solvent 5, propylene carbonate]	Totally Soluble	Totally Soluble	Totally Soluble	Totally Soluble	100%	
CC(O)CO (stereo not shown) [Comparative Solvent 7, propylene glycol]	Totally Soluble	Totally Soluble	Totally Soluble	Totally Soluble	100%	
COC(=O)CCCCC(=O)OC [Comparative Solvent 10, dimethyl adipate]	Totally Soluble	Totally Soluble	Totally Soluble	Totally Soluble	100%	
CCOC(=O)CC(SP(=S)(OC)OC)C(=O)OCC (stereo not shown) [Malathion]						approximately 66 weight percent
CCc1cccc(C)c1N(C(=O)CCl)C(C)COC (stereo not shown) [Metolachlor]						approximately 66 weight percent
CC(C)CCCCCCOC(=O)C1CCCCC1C(=O)OCCCCCCC(C)C (stereo not shown) [Solvent 1, 1,2-cyclohexanedicarboxylic acid diisononyl ester]	Totally Soluble	Totally Soluble	Totally Soluble	Totally Soluble	0.33%	
